In assay [1] the target is T1, Orexin/Hypocretin receptor type 1 (Homo sapiens, UniProt O43613).
T1 sequence (O43613 whole entry): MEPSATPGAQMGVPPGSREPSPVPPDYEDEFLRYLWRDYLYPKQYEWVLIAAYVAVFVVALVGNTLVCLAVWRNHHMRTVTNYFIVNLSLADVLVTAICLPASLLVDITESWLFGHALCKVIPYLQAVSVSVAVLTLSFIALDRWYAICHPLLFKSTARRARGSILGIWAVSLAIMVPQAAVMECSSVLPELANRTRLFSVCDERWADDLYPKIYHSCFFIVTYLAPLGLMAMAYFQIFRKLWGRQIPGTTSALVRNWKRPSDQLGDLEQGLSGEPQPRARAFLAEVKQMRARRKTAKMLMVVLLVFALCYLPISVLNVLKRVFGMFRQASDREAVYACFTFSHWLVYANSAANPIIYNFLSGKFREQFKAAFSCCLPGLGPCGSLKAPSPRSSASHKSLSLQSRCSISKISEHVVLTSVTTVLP
Put plainly: Antagonist activity at human OX1R expressed in CHOK1 cells assessed as inhibition of orexin A-induced intracellular Ca2+ release preincubated for 15 mins followed by orexin A addition by Fura 2-AM dye based fluorescence assay. In kind it is functional, cell-based.

The target of assay [2] is T2, Orexin receptor type 2 (Homo sapiens, UniProt O43614).
T2 sequence (O43614 whole entry): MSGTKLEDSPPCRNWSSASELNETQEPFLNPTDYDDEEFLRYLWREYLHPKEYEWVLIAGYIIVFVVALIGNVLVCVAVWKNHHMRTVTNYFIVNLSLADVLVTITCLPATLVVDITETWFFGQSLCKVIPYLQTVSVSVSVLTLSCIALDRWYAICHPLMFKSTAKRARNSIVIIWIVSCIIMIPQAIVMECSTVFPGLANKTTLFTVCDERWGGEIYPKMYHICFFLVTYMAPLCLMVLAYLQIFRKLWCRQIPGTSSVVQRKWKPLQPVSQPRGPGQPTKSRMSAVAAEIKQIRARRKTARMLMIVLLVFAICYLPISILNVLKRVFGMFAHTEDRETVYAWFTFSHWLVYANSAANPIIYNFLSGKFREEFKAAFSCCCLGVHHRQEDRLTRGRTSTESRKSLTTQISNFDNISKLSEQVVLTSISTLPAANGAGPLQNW
Put plainly: Antagonist activity at human OX2R expressed in CHOK1 cells assessed as inhibition of orexin A-induced intracellular Ca2+ release preincubated for 15 mins followed by orexin A addition by Fura 2-AM dye based fluorescence assay. In kind it is functional, cell-based.

The structures appear in SMILES notation.

With `COc1ccc2c3c1O[C@H]1[C@H](N(C)C(=O)/C=C/c4ccoc4)CC[C@H]4[C@@H](C2)N(S(=O)(=O)c2ccccc2)CC[C@@]341`, the Ki was 1.97 nM in assay [1] and greater than 10 µM in assay [2]. For `COc1ccc2c3c1O[C@H]1[C@@H](N(C)C(=O)/C=C/c4ccoc4)CC[C@H]4[C@@H](C2)N(S(=O)(=O)c2ccccc2)CC[C@@]341`, the Ki was 187 nM in assay [1] and greater than 10 µM in assay [2]. Take `COc1ccc2c3c1O[C@H]1[C@@H](N(C)C(=O)/C=C/c4ccoc4)CC[C@@]4(O)[C@@H](C2)N(S(=O)(=O)c2ccccc2)CC[C@]314`: in assay [2], the Ki is greater than 10 µM. In the case of `COc1ccc2c3c1O[C@H]1[C@H](N(C)C(=O)/C=C/c4ccoc4)CC[C@@]4(O)[C@@H](C2)N(S(=O)(=O)c2ccccc2)CC[C@]314`, the Ki in assay [2] was greater than 10 µM. As to `COc1ccc2c3c1O[C@H]1[C@H](N(C)C(=O)/C=C/c4ccoc4)CC=C4[C@@H](C2)N(S(=O)(=O)c2ccccc2)CC[C@]431`, the results for the Ki in assay [1] and in assay [2] were 2.06 nM and greater than 10 µM, respectively. With `COc1ccc2c3c1O[C@H]1[C@@H](N(C)C(=O)/C=C/c4ccoc4)CC=C4[C@@H](C2)N(S(=O)(=O)c2ccccc2)CC[C@]431`, the results for the Ki in assay [1] and in assay [2] were 17.8 nM and 0.123 µM, respectively.

These data come from ChEMBL document CHEMBL4184213, “Essential structure of orexin 1 receptor antagonist YNT-707, Part II: Drastic effect of the 14-hydroxy group on the orexin 1 receptor antagonistic activity” (Bioorg Med Chem Lett, 2018).
